Assay results as given in ChEMBL document CHEMBL1201862, “PubChem BioAssay data set” (2004).
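Cultured in 96-well plates, cells were exposed to test compound for 48 hours across five concentrations. Abbreviation: GI50, concentration required for 50% inhibition of growth.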 Calls of active or inactive are those of the source. Rule as the data show it: active = GI50 up to about 1.1 µM and inactive = higher.

Key:
Assay in all cases: DTP human tumour cell line panel, 48 h
ACHN = system: ACHN
CAKI-1 = system: CAKI-1
CCRF-CEM = system: CCRF-CEM
COLO 205 = system: COLO 205
HCT-15 = system: HCT-15
HL-60 = system: HL-60
HOP-62 = system: HOP-62
HOP-92 = system: HOP-92
M14 = system: M14
NCI-H226 = system: NCI-H226
NCI-H23 = system: NCI-H23
OVCAR-3 = system: OVCAR-3
OVCAR-5 = system: OVCAR-5
OVCAR-8 = system: OVCAR-8
SF-268 = system: SF-268
SNB-75 = system: SNB-75
UACC-257 = system: UACC-257
MCF7 = system: MCF7
MDA-MB-231 = system: MDA-MB-231

| SMILES | GI50 (ACHN) | GI50 (CAKI-1) | GI50 (CCRF-CEM) | GI50 (COLO 205) | GI50 (HCT-15) [µM] | GI50 (HL-60) | GI50 (HOP-62) | GI50 (HOP-92) | GI50 (M14) | GI50 (NCI-H226) | GI50 (NCI-H23) | GI50 (OVCAR-3) | GI50 (OVCAR-5) | GI50 (OVCAR-8) | GI50 (SF-268) | GI50 (SNB-75) | GI50 (UACC-257) | GI50 (MCF7) | GI50 (MDA-MB-231) |
| --- | --- | --- | --- | --- | --- | --- | --- | --- | --- | --- | --- | --- | --- | --- | --- | --- | --- | --- | --- |
| CCN(CC)CCN(C)CC(C)(C)C(=O)/C=C/c1ccccc1 | 12.6 µM (inactive) | 11.8 µM (inactive) | 4.99 µM (inactive) | 13.7 µM (inactive) | 12.5 | 6.22 µM (inactive) | 22.1 µM (inactive) | 3.99 µM (inactive) | 13 µM (inactive) | 17.1 µM (inactive) | 12.6 µM (inactive) | 13.5 µM (inactive) | 14 µM (inactive) | 15.8 µM (inactive) | 12.6 µM (inactive) | 4.36 µM (inactive) | 11.7 µM (inactive) | – | – |
| Nn1c(S)nnc1CCCCCCCCc1nnc(S)n1N | > 100 µM (inactive) | > 100 µM (inactive) | 90.8 µM (inactive) | > 100 µM (inactive) | > 100 | > 100 µM (inactive) | > 100 µM (inactive) | > 100 µM (inactive) | > 100 µM (inactive) | > 100 µM (inactive) | > 100 µM (inactive) | > 100 µM (inactive) | > 100 µM (inactive) | > 100 µM (inactive) | > 100 µM (inactive) | > 100 µM (inactive) | > 100 µM (inactive) | > 100 µM (inactive) | > 100 µM (inactive) |
| CC1(C)OC2OC(/C=C/[N+](=O)[O-])C3OC(C)(C)OC3C2O1 (stereo not drawn) | 15.4 µM (inactive) | 4.67 µM (inactive) | 2.94 µM (inactive) | 4.6 µM (inactive) | 2.25 | 2.94 µM (inactive) | 20.7 µM (inactive) | 8.43 µM (inactive) | 12.3 µM (inactive) | 20.5 µM (inactive) | 18.7 µM (inactive) | 16.4 µM (inactive) | 23.2 µM (inactive) | 8.47 µM (inactive) | 19.8 µM (inactive) | 20.2 µM (inactive) | 7.52 µM (inactive) | – | – |
| COc1c(C)c2c(c3c1c(=O)c1ccccc1n3C)C=CC(C)(C)O2 | 20.6 µM (inactive) | 26.2 µM (inactive) | 21.4 µM (inactive) | 30.7 µM (inactive) | 18.2 | 9.73 µM (inactive) | 27.2 µM (inactive) | 31.9 µM (inactive) | 15.5 µM (inactive) | 36.7 µM (inactive) | 27.1 µM (inactive) | 19.6 µM (inactive) | 29.2 µM (inactive) | 25.6 µM (inactive) | 26.4 µM (inactive) | 20.4 µM (inactive) | 28.9 µM (inactive) | – | – |
| Cc1cccc(C2=NC(C)(C)C(C)(C)N=C2c2cccc(C)n2)n1 | > 100 µM (inactive) | > 100 µM (inactive) | 71 µM (inactive) | 67.5 µM (inactive) | > 100 | 53.6 µM (inactive) | > 100 µM (inactive) | > 100 µM (inactive) | 71.6 µM (inactive) | > 100 µM (inactive) | 30.1 µM (inactive) | 44.1 µM (inactive) | > 100 µM (inactive) | > 100 µM (inactive) | > 100 µM (inactive) | > 100 µM (inactive) | 45.4 µM (inactive) | – | – |
| COC1=C(C(=O)OC(C)(C)C)C23CCCCC2(C(C(=O)OC(C)(C)C)=C(OC)C3C(=O)OC(C)(C)C)C1C(=O)OC(C)(C)C (stereo not drawn) | 20.1 µM (inactive) | > 100 µM (inactive) | 27.9 µM (inactive) | 10.4 µM (inactive) | 15.2 | 6.81 µM (inactive) | > 100 µM (inactive) | 7.05 µM (inactive) | 7.89 µM (inactive) | 42.7 µM (inactive) | 21.5 µM (inactive) | 7.8 µM (inactive) | > 100 µM (inactive) | 59.6 µM (inactive) | > 100 µM (inactive) | 84.5 µM (inactive) | 6.1 µM (inactive) | – | – |
| O=C(NC(CS)C(=O)O)c1c2ccccc2nc2ccccc12 (stereo not drawn) | 21.3 µM (inactive) | > 100 µM (inactive) | 61.7 µM (inactive) | 4.55 µM (inactive) | 12.8 | 0.16 µM (active) | 38.7 µM (inactive) | > 100 µM (inactive) | > 100 µM (inactive) | < 0.01 µM (active) | 11.2 µM (inactive) | > 100 µM (inactive) | > 100 µM (inactive) | 49.1 µM (inactive) | > 100 µM (inactive) | 83.8 µM (inactive) | 13.7 µM (inactive) | 49.3 µM (inactive) | 76.6 µM (inactive) |
| CC(=O)/C=C/CCC(=O)/C=C/C(=O)OC(CCC(=O)/C=C/C(=O)O)CC(C)=O (stereo not drawn) | > 100 µM (inactive) | – | 43.8 µM (inactive) | > 100 µM (inactive) | 92.5 | 32.8 µM (inactive) | > 100 µM (inactive) | > 100 µM (inactive) | > 100 µM (inactive) | 42.6 µM (inactive) | > 100 µM (inactive) | > 100 µM (inactive) | > 100 µM (inactive) | > 100 µM (inactive) | > 100 µM (inactive) | – | > 100 µM (inactive) | 93.1 µM (inactive) | > 100 µM (inactive) |
| O=C(O)CCC(=O)OCN1C(=O)C2C3C=CC(C2C1=O)C1C2C(=O)N(COC(=O)CCC(=O)O)C(=O)C2C31 (stereo not drawn) | > 67 µM (inactive) | > 100 µM (inactive) | 34 µM (inactive) | > 57.8 µM (inactive) | 32.4 | 23.4 µM (inactive) | > 100 µM (inactive) | > 100 µM (inactive) | > 100 µM (inactive) | > 100 µM (inactive) | > 100 µM (inactive) | > 100 µM (inactive) | > 100 µM (inactive) | 56.9 µM (inactive) | > 78.9 µM (inactive) | > 95.7 µM (inactive) | > 100 µM (inactive) | – | – |
| N#CCCN(CCC#N)c1ccc(C(Sc2ccccc2)C(NC(=O)c2cc([N+](=O)[O-])ccc2Cl)C(=O)Sc2ccccc2)cc1 (stereo not drawn) | 3.71 µM (inactive) | 1.45 µM (inactive) | 0.172 µM (active) | 2.34 µM (inactive) | 3.45 | 1.4 µM (inactive) | 3.24 µM (inactive) | 5.58 µM (inactive) | 3.32 µM (inactive) | 2.02 µM (inactive) | 5.06 µM (inactive) | 2.56 µM (inactive) | 4.38 µM (inactive) | 1.96 µM (inactive) | 2.35 µM (inactive) | 5.41 µM (inactive) | 8.07 µM (inactive) | – | – |
| CO[C@H]1/C=C/O[C@@]2(C)Oc3c(C)c(O)c4c(O)c(c(/C=N/N5CCN(C)CC5)c(O)c4c3C2=O)NC(=O)/C(C)=C\C=C\[C@H](C)[C@H](O)[C@@H](C)[C@@H](O)[C@@H](C)[C@H](OC(C)=O)[C@@H]1C [RIFAMPIN] | > 100 µM (inactive) | > 100 µM (inactive) | 26.2 µM (inactive) | 82.6 µM (inactive) | – | – | > 100 µM (inactive) | – | 62.1 µM (inactive) | – | – | 24.8 µM (inactive) | > 100 µM (inactive) | > 100 µM (inactive) | – | – | 80.5 µM (inactive) | > 100 µM (inactive) | 24.5 µM (inactive) |
| O=C1OCC2C1C1c3ccccc3C(O)c3ccccc3C21 (stereo not drawn) | > 100 µM (inactive) | > 100 µM (inactive) | > 100 µM (inactive) | > 100 µM (inactive) | > 100 | > 100 µM (inactive) | > 100 µM (inactive) | > 100 µM (inactive) | > 100 µM (inactive) | > 100 µM (inactive) | > 100 µM (inactive) | > 100 µM (inactive) | > 100 µM (inactive) | > 100 µM (inactive) | > 100 µM (inactive) | > 100 µM (inactive) | > 100 µM (inactive) | – | – |
| N#Cc1c(-c2ccc(Cl)cc2)c(C#N)c(=O)n(NS(=O)(=O)c2ccccc2)c1-c1ccccc1 | > 25 µM (inactive) | > 25 µM (inactive) | > 25 µM (inactive) | > 25 µM (inactive) | > 25 | > 25 µM (inactive) | > 25 µM (inactive) | > 25 µM (inactive) | > 25 µM (inactive) | – | – | – | > 25 µM (inactive) | – | – | – | > 25 µM (inactive) | 19.8 µM (inactive) | > 25 µM (inactive) |
| Cc1ccc(S(=O)(=O)OI(O)CC(F)(F)F)cc1 | > 100 µM (inactive) | > 100 µM (inactive) | > 100 µM (inactive) | > 100 µM (inactive) | > 100 | > 100 µM (inactive) | > 100 µM (inactive) | > 100 µM (inactive) | > 100 µM (inactive) | > 100 µM (inactive) | > 100 µM (inactive) | > 100 µM (inactive) | > 100 µM (inactive) | > 100 µM (inactive) | > 100 µM (inactive) | > 100 µM (inactive) | > 100 µM (inactive) | > 100 µM (inactive) | > 100 µM (inactive) |
| COc1ccc(C(=O)O)c(Cc2ccc3ccccc3c2)c1 | > 100 µM (inactive) | > 100 µM (inactive) | > 100 µM (inactive) | > 100 µM (inactive) | – | > 100 µM (inactive) | > 100 µM (inactive) | > 100 µM (inactive) | > 100 µM (inactive) | > 100 µM (inactive) | > 100 µM (inactive) | > 100 µM (inactive) | > 100 µM (inactive) | > 100 µM (inactive) | > 100 µM (inactive) | > 100 µM (inactive) | > 100 µM (inactive) | – | – |
| COc1ccc(C(C)Nc2cc(OC)c(OC)c(OC)c2)cc1 (stereo not drawn) | 8.87 µM (inactive) | 4.23 µM (inactive) | 3.29 µM (inactive) | 2.48 µM (inactive) | 3 | 1.94 µM (inactive) | 2.88 µM (inactive) | 1.56 µM (inactive) | 6.21 µM (inactive) | 14.8 µM (inactive) | 3.72 µM (inactive) | 2.69 µM (inactive) | 29.5 µM (inactive) | 7.16 µM (inactive) | 2.9 µM (inactive) | 5.75 µM (inactive) | 3.27 µM (inactive) | – | – |
